Reference: US3997549A, “N-arylsulfenylated derivatives of benzofuranyl methylcarbamates” (priority 1973, dated 1976)
Values after ≈ are worked out from the molar mass of the structure shown. Where two headings read alike, the source gives them in different places.

Tests used:
pea aphid [1] = assay: whole plant or invertebrate; conditions: Acyrthosiphon pisum, 48 h, read-out: % Kill, PA (systemic)
Mexican bean beetle [2] = assay: Initial contact activity, Mexican bean beetle; conditions: Epilachna varivestis, 48 h, read-out: % Kill, BB (initial contact)
pea aphid [3] = assay: Residual contact activity, pea aphid; conditions: Acyrthosiphon pisum, 48 h, read-out: % Kill, PA (residual contact)
two-spotted spider mite [4] = assay: whole plant or invertebrate; conditions: Tetranychus urticae, 48 h, read-out: % Kill, SM (systemic)
granary weevil [5] = assay: Initial contact activity, granary weevil; conditions: Sitophilus granarius, 48 h, read-out: % Kill, GW (initial contact)
in vivo = conditions: mouse, po
Protocol: Acute oral toxicity of the compounds of the present invention to mice was determined after the manner of Hollingworth, Fukuto, and Metcalf in J. Agr. […] A dose of 0.25 ml of each solution was administered to each of four female white Swiss mice using the "bolus" - tipped syringe. […] Final mortality determinations were made forty-eight hours after treatment.

southern army worm [6] = conditions: 2880 min
granary weevil [7] = assay: Residual contact activity, granary weevil; conditions: Sitophilus granarius, 48 h, read-out: % Kill, GW (residual contact)
milkweed bug [8] = assay: Initial contact activity, milkweed bug; conditions: Oncopeltus fasciatus, 48 h, read-out: % Kill, MWB (initial contact)
Culex fatigans = assay: whole plant or invertebrate; conditions: Culex quinquefasciatus, 24 h, read-out: Mosquitoes LC50
Protocol: The appropriate amount of stock solution was added with stirring to 100 ml of tap water and 20-25 fourth instar larvae of Culex fatigans were placed in the solution. After twenty-four hours, the counts were taken. Larvae not able to rise to the surface on touch were counted as dead. Each concentration was run in duplicate and each material was run on two or three different days. The average percent mortality was plotted against the logarithm of the concentration (in ppm) and the LC50 value determined by inspection.

Mexican bean beetle [9] = assay: whole plant or invertebrate; conditions: Epilachna varivestis, 48 h, read-out: % Kill, BB (systemic)
pea aphid [10] = assay: Initial contact activity, pea aphid; conditions: Acyrthosiphon pisum, 48 h, read-out: % Kill, PA (initial contact)
milkweed bug [11] = assay: Residual contact activity, milkweed bug; conditions: Oncopeltus fasciatus, 48 h, read-out: % Kill, MWB (residual contact)
southern army worm [12] = assay: Residual contact activity, southern army worm; conditions: 1250 ppm; 7 days; 2880 min
plum curculio [13] = assay: Residual contact activity, plum curculio; conditions: Conotrachelus nenuphar, 48 h, read-out: % Kill, PC (residual contact)
southern army worm [14] = assay: Initial contact activity, southern army worm; conditions: 1250 ppm, 48 h exposure
two-spotted spider mite [15] = assay: Residual contact activity, two-spotted spider mite; conditions: Tetranychus urticae, 48 h, read-out: % Kill, SM (residual contact)
Mexican bean beetle [16] = assay: Residual contact activity, Mexican bean beetle; conditions: Epilachna varivestis, 48 h, read-out: % Kill, BB (residual contact)
plum curculio [17] = assay: Initial contact activity, plum curculio; conditions: Conotrachelus nenuphar, 48 h, read-out: % Kill, PC (initial contact)
houseflies = assay: whole plant or invertebrate; conditions: Musca domestica, topical, 24 h, read-out: Houseflies LD50
Protocol: Toxicity of the compounds of the present invention to houseflies was tested using the technique described by March and Metcalf in Bull. Calif. State Dept. Agr. […] Adult female houseflies were treated with one drop of acetone solution, applied to the prothorax, using a syringe calibrated to deliver 1.00 ± 0.05 mm^3 drops. Twenty flies were treated at each dosage, each test compound was applied at 8 to 10 dosage levels. Each test was replicated three times. […] A one-inch square of cotton saturated with 40% sugar solution was provided for food in each carton. The cartons of flies were held in a constant temperature chamber at 60° F and 60% relative humidity for 24 hours before mortality counts were made. Flies totally unable to make crawling or walking movements were counted as dead. LD50 values were calculated in the conventional manner.

two-spotted spider mite [18] = assay: Initial contact activity, two-spotted spider mite; conditions: Tetranychus urticae, 48 h, read-out: % Kill, SM (initial contact)
[19] = 39 ppm soil watering, group printed before the slash (separate test vs carbofuran)

Row | Compound | mortality at 39 ppm (pea aphid [1]) [%] | mortality at 156 ppm (pea aphid [1]) [%] | mortality at 1250 ppm (Mexican bean beetle [2]) [%] | mortality at 1250 ppm (pea aphid [3]) [%] | mortality at 39 ppm (two-spotted spider mite [4]) [%] | mortality at 156 ppm (two-spotted spider mite [4]) [%] | mortality at 1250 ppm (granary weevil [5]) [%] | LD50 at 48 h (in vivo) [mg/kg] | % Kill, AW (systemic) (southern army worm [6]; [19]) [%] | % Kill, AW (systemic) (southern army worm [6]; 156 ppm soil watering) [%] | mortality at 1250 ppm (granary weevil [7]) [%] | mortality at 1250 ppm (milkweed bug [8]) [%] | LC50 (Culex fatigans) [ng/mL] | mortality at 39 ppm (Mexican bean beetle [9]) [%] | mortality at 156 ppm (Mexican bean beetle [9]) [%] | mortality at 1250 ppm (pea aphid [10]) [%] | mortality at 1250 ppm (milkweed bug [11]) [%] | % Kill, AW (residual contact) (southern army worm [12]) [%] | mortality at 1250 ppm (plum curculio [13]) [%] | % Kill, AW (initial contact) (southern army worm [14]) [%] | other results
1 | CN(Sc1ccc(Cl)cc1)C(=O)Oc1cccc2c1OC(C)(C)C2 [Example V, 2,3-Dihydro-2,2-dimethyl-7-benzofuranyl (4-chlorophenylthio)(methyl)carbamate] | 100 | 100 | 100 | 95 | 29 | 33 | 100 | 50 | 50 | 80 | 100 | 100 | 2 (≈ 0.0055 µM) | 95 | 100 | 100 | 100 | 100 | 95 | 100 | mortality at 1250 ppm (two-spotted spider mite [15]): 5%; mortality at 1250 ppm (Mexican bean beetle [16]): 100%; mortality at 1250 ppm (plum curculio [17]): 100%; LD50 (houseflies): 12.5 mg/kg; mortality at 1250 ppm (two-spotted spider mite [18]): 100%
2 | CN(Sc1nc2ccccc2s1)C(=O)Oc1cccc2c1OC(C)(C)C2 [Example VII, 2,3-Dihydro-2,2-dimethyl-7-benzofuranyl (2-benzothiazolylthio)(methyl)carbamate] | 100 | 100 | 91 | 0 | 3 | 2 | 100 | 50 | 0 | 60 | 100 | 100 | 9.5 (≈ 0.0246 µM) | 68 | 81 | 100 | 100 | 100 | 55 | 62 | mortality at 1250 ppm (two-spotted spider mite [15]): 5%; mortality at 1250 ppm (Mexican bean beetle [16]): 100%; mortality at 1250 ppm (plum curculio [17]): 100%; LD50 (houseflies): 8.5 mg/kg; mortality at 1250 ppm (two-spotted spider mite [18]): 72%
3 | Cc1cc(Br)ccc1SN(C)C(=O)Oc1cccc2c1OC(C)(C)C2 [XI, 2,3-Dihydro-2,2-dimethyl-7-benzofuranyl (4-bromo-2-methylphenylthio)(methyl)carbamate] | 100 | 100 | 100 | 10 | 23 | 28 | 100 | 100 to 150 | 75 | 100 | 100 | 100 | 2.5 (≈ 0.00592 µM) | 95 | 100 | 35 | 95 | 100 | 40 | 100 | mortality at 1250 ppm (two-spotted spider mite [15]): 3%; mortality at 1250 ppm (Mexican bean beetle [16]): 100%; mortality at 1250 ppm (plum curculio [17]): 100%; LD50 (houseflies): 11.2 mg/kg; mortality at 1250 ppm (two-spotted spider mite [18]): 9%
4 | CN(Sc1ccc2c(c1)OCO2)C(=O)Oc1cccc2c1OC(C)(C)C2 [XIV, 2,3-Dihydro-2,2-dimethyl-7-benzofuranyl (methyl)(3,4-methylenedioxyphenylthio)carbamate] | 100 | 100 | 100 | 10 | 10 | 16 | 100 | 10 to 25 | 14 | 64 | 100 | 100 | 6.5 (≈ 0.0174 µM) | 90 | 94 | 100 | 100 | 100 | 80 | 100 | mortality at 1250 ppm (two-spotted spider mite [15]): 2%; mortality at 1250 ppm (Mexican bean beetle [16]): 100%; mortality at 1250 ppm (plum curculio [17]): 100%; LD50 (houseflies): 5 mg/kg; mortality at 1250 ppm (two-spotted spider mite [18]): 38%
